The results in this text go back to ChEMBL document CHEMBL5042473 (J Med Chem, 2022).

In one series the target is CYP2C19 (Homo sapiens, UniProt P33261). In words: Inhibition of human recombinant CYP2C19 at 10 uM relative to control. The class given is ADME.
Another series deals with CYP2D6 (Homo sapiens, UniProt P10635). The experiment in a line: Inhibition of human recombinant CYP2D6 at 10 uM relative to control. It is filed as ADME.
Series [1] is described as follows: Cytotoxicity against Balb/c mouse splenocytes assessed as metabolic activity at 100 nM incubated for 24 hrs by MTT assay relative to LPS-stimulated splenocytes. It is filed as toxicity, cell-based, Splenocyte. The note with it: read-out: Activity. Background: Tetrazolium dyes change colour on reduction, which living cells bring about.
The target in another series is CYP3A4 (Homo sapiens, UniProt P08684). The experiment in a line: Inhibition of human recombinant CYP3A4 at 10 uM relative to control. The class given is ADME.
Chain of CYP3A4 (P08684 whole entry): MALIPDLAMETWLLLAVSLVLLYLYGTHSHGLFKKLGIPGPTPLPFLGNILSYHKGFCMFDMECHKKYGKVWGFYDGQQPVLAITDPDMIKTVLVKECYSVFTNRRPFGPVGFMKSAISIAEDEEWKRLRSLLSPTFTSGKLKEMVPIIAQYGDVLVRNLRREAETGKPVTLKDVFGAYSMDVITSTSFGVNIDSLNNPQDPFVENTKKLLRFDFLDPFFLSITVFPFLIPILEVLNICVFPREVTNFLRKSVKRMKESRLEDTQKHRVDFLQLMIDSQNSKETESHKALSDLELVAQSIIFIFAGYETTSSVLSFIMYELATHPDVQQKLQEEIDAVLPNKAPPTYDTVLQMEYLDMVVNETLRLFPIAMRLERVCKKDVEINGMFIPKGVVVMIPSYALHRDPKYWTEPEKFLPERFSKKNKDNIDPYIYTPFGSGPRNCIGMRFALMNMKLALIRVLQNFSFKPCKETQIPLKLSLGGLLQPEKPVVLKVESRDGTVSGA
Another series deals with CYP2C9 (Homo sapiens, UniProt P11712). The experiment in a line: Inhibition of human recombinant CYP2C9 at 10 uM relative to control. It is filed as ADME.
Chain of CYP2C9 (P11712 whole entry): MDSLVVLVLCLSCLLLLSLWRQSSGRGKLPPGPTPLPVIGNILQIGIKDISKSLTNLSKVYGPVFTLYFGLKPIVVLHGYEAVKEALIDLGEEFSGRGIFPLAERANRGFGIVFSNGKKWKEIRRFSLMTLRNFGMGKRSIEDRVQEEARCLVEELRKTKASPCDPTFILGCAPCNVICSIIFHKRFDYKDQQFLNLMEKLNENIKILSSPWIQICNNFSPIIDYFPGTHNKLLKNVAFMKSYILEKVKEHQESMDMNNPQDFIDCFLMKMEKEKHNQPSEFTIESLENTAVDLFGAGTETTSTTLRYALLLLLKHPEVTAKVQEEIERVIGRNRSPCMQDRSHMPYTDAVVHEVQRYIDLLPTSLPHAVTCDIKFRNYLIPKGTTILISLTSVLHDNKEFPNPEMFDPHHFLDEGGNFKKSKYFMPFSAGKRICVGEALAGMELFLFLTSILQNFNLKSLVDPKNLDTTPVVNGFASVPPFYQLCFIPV
Series [2] deals with Blood. In words: Antiinflammatory activity against LPS-stimulated C57BL/6 mouse whole blood assessed as reduction in IL-6 incubated for 24 hrs by ELISA based method. It is filed as functional. Details: scale not given: the % may be the effect or the level left. The settings on record: dose 1-100 nM, at 1 to 100 nM. In general terms: An ELISA detects its analyte on a solid surface through an enzyme-linked reagent.

For series [3], the system named is Blood. The experiment in a line: Reduction in LPS-stimulated TNF-alpha release in human whole blood incubated for 15 mins by ELISA based method. The settings on record: 0.25 h.
A further series addresses hERG (Homo sapiens, UniProt Q12809). In words: Inhibition of hERG at 10 uM by fluorimetric analysis relative to control. The class given is toxicity. In general terms: hERG is a cardiac potassium channel; its block is linked to QT prolongation.
The test system of series [4] is Splenocyte. In words: Cytotoxicity against Balb/c mouse splenocytes assessed as metabolic activity at 1 to 10 nM incubated for 24 hrs by MTT assay. The settings on record: 0.01 µM, dose 1-10 nM. The class given is toxicity, cell-based.
A further series deals with T1, CYP1A2 (Homo sapiens, UniProt P05177).
T1 sequence (P05177 whole entry): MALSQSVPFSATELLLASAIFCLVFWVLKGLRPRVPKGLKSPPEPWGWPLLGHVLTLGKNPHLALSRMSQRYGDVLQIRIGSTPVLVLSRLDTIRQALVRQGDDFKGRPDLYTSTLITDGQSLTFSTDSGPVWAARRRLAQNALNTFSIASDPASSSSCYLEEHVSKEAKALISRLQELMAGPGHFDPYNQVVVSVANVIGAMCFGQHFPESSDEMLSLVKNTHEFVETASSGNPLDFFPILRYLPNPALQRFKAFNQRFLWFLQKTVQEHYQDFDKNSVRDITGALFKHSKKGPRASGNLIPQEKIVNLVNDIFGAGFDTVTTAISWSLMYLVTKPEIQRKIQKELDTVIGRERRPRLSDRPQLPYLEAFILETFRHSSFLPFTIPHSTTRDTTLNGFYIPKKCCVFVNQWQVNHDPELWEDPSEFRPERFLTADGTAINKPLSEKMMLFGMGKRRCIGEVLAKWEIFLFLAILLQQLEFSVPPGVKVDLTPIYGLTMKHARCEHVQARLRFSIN
The experiment in a line: Inhibition of human recombinant CYP1A2 at 10 uM relative to control. The class given is ADME.

Series [5] deals with Mitogen-activated protein kinase 14 (Homo sapiens, UniProt Q16539). The experiment in a line: Inhibition of human p38 MAPK alpha incubated for 1 hr by photometric method.
Chain of Mitogen-activated protein kinase 14 (Q16539 whole entry): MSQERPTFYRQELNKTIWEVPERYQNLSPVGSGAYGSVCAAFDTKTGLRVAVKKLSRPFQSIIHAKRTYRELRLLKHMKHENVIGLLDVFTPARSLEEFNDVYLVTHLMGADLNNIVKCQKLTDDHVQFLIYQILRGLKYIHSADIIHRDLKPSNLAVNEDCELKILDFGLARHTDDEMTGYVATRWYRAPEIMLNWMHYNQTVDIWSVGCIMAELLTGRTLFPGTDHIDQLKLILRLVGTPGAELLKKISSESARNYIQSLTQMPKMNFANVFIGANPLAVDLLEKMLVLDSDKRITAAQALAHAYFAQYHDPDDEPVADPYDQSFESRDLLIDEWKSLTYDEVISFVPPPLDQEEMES
For series [6], the system named is Blood. The experiment in a line: Antiinflammatory activity against LPS-stimulated C57BL/6 mouse whole blood assessed as reduction in TNF-alpha at 10 nM incubated for 24 hrs by ELISA based method. It is filed as functional. The note with it: C57BL/6, Blood.
Series [7] in a line: Drug concentration in mouse C57BL/6 brain at 0.4 mg/kg,po measured at 4 hrs by LC-MS/MS analysis. The note with it: C57BL/6, mouse, read-out: Drug uptake. It is filed as ADME, organism-based.
The nature of series [8]: Drug concentration in mouse C57BL/6 heart at 0.4 mg/kg,po measured at 4 hrs by LC-MS/MS analysis. It is filed as ADME, organism-based. The settings on record: C57BL/6, mouse, read-out: Drug uptake.
The test system of series [9] is Splenocyte. In words: Antiinflammatory activity against LPS-stimulated Balb/c mouse splenocytes assessed as reduction in IL-6 at 1 nM incubated for 24 hrs by ELISA based method. Details: scale not given: the % may be the effect or the level left. The class given is functional.
Series [10] is described as follows: Drug concentration in mouse C57BL/6 brain at 0.4 mg/kg,po measured at 2 hrs by LC-MS/MS analysis. It is filed as ADME, organism-based. The note with it: C57BL/6, mouse, read-out: Drug uptake.
Series [11] has as its system Blood. In words: Antiinflammatory activity against LPS-stimulated C57BL/6 mouse whole blood assessed as reduction in TNF-alpha at 1 nM incubated for 24 hrs by ELISA based method. Details: scale not given: the % may be the effect or the level left. The class given is functional.
The nature of series [12]: Drug concentration in mouse C57BL/6 liver at 0.4 mg/kg,po measured at 4 hrs by LC-MS/MS analysis. It is filed as ADME, organism-based. The note with it: C57BL/6, mouse, read-out: Drug uptake.
Series [13] is described as follows: Ratio of drug concentration in mouse C57BL/6 brain to plasma at 0.4 mg/kg, po measured at 2 hrs by LC-MS/MS analysis. The class given is ADME, organism-based. The note with it: C57BL/6, mouse, brain and plasma.
A short description of series [14]: Drug concentration in mouse C57BL/6 kidney at 0.4 mg/kg,po measured at 4 hrs by LC-MS/MS analysis. It is filed as ADME, organism-based. The note with it: C57BL/6, mouse, read-out: Drug uptake.
Series [15] can be described thus: Metabolic stability in human liver microsomes assessed as parent compound remaining incubated for 120 mins. The class given is ADME, Microsome. The settings on record: read-out: Stability.
Series [16] has as its system Splenocyte. In words: Antiinflammatory activity against LPS-stimulated Balb/c mouse splenocytes assessed as reduction in IL-6 at 10 nM incubated for 24 hrs by ELISA based method. The class given is functional. Also noted: scale not given: the % may be the effect or the level left.
Series [17] concerns Splenocyte. The experiment in a line: Antiinflammatory activity against LPS-stimulated Balb/c mouse splenocytes assessed as reduction in IL-6 at 100 nM incubated for 24 hrs by ELISA based method. The class given is functional. Details: scale not given: the % may be the effect or the level left.

Chain of hERG (Q12809 whole entry): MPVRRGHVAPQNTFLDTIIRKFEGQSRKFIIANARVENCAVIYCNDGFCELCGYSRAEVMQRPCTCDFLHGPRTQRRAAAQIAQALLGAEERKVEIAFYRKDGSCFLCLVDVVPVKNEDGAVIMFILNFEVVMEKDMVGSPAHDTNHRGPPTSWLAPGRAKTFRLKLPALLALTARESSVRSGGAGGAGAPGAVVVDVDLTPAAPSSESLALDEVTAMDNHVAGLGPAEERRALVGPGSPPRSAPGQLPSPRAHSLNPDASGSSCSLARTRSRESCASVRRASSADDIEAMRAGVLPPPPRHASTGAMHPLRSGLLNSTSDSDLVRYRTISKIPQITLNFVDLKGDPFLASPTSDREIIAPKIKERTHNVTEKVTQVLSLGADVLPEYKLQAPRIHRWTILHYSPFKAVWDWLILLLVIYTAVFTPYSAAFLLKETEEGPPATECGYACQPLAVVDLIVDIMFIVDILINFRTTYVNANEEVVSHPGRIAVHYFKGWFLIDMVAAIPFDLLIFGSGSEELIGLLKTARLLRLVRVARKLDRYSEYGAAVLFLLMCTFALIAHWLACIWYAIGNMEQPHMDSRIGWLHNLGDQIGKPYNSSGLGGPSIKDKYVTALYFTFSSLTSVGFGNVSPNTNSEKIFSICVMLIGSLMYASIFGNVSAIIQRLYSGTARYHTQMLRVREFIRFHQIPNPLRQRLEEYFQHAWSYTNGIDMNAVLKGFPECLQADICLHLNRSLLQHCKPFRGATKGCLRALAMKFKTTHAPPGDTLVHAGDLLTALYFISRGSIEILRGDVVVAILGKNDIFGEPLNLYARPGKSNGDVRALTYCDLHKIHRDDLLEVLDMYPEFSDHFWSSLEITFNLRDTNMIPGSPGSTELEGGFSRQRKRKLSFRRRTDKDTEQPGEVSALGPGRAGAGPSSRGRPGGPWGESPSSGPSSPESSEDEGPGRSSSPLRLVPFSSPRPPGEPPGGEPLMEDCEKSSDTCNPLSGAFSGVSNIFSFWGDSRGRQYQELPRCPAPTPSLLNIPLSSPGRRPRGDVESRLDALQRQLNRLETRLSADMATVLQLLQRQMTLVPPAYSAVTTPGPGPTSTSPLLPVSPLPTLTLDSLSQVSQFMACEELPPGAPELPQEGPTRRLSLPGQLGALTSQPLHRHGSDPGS
Chain of CYP2D6 (P10635 whole entry): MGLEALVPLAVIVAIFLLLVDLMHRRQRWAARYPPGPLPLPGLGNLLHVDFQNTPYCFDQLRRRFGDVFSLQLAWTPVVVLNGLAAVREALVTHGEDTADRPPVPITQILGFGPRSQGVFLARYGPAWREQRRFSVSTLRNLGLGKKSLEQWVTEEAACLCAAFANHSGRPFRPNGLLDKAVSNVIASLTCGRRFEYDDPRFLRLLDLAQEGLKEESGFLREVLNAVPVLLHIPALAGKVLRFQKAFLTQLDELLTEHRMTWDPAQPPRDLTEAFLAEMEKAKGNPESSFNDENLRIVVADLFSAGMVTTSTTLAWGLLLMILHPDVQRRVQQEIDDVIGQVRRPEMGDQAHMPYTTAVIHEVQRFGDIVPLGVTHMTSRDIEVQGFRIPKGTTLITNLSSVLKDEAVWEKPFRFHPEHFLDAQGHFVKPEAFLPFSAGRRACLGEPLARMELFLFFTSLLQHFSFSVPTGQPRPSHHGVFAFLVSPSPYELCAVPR
Chain of CYP2C19 (P33261 whole entry): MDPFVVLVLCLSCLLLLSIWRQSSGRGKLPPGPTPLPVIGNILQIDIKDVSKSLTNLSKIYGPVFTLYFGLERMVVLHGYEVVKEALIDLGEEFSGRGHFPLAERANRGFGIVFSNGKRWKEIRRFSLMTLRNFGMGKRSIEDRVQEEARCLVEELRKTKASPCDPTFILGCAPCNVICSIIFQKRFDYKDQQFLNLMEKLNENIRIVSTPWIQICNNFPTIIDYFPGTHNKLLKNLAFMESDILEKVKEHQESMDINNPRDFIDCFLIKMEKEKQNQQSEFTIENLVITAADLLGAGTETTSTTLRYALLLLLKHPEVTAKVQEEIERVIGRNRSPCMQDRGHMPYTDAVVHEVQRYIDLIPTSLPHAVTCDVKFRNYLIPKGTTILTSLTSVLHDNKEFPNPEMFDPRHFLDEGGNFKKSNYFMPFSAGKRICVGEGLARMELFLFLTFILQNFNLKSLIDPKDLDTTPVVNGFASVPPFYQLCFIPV

By inhibition is commonly meant the relative decrease from the control value, in per cent. As usually defined, the IC50 is the midpoint of a concentration-inhibition curve. Consider `COC(=O)CCCNC(=O)c1ccc2c(c1)C(=O)c1ccc(Nc3ccc(F)cc3F)cc1CC2`, for which the inhibition at 10 µM is 60.4% at CYP2C19; 3% on CYP2D6; 34.9% at CYP3A4; 68.4% on CYP2C9; 49.7% against hERG; 11.6% at CYP1A2. The viability at 24 h, 0.1 µM in series [1] was 66%. Besides, the Activity was 64% in the series with Blood [2] and “Non-Toxic” in the series on Splenocyte [4]. Further, the IC50 in the series with Blood [3] is 64 nM; in series [5], 3.4 nM. The inhibition at 0.01 µM in the series with Blood [6] was determined as 50%.
Usually Kp stands for the ratio of the level in a tissue or fluid to that in plasma or blood. For the molecule `Nc1ccccc1Nc1ccc2c(c1)CCc1ccc(C(=O)NCCC(=O)O)cc1C2=O`, the concentration at 4 h in [7] turned out to be 540 nM; in [8], 120 nM; in series [12] it was 330 nM; in series [14] it was 380 nM. Also, the inhibition at 10 µM on CYP2C19 worked out at 21.8%; on CYP2D6, 11.4%; on CYP3A4, 4.1%; at CYP2C9 it was 13.1%; against hERG, 22.5%; at CYP1A2 it was 28.1%. For the same molecule, the Activity with Splenocyte [9] is given as 138%; in the series with Blood [11], 5%; in the series with Splenocyte [4], “Non-Toxic”; in the series with Splenocyte [16], 118%; in the series with Splenocyte [17] it was 29%. Also, the viability at 24 h, 0.1 µM in series [1] worked out at 66%. In [10], the concentration at 2 h turned out to be 590 nM. In series [13], the concentration ratio (Kp) at 2 h came to 4.7. The remaining at 2 h in series [15] was 99%. Further, half-maximal inhibition in series [5] (IC50) required 0.98 nM.
